For the assay, the system named is NGN3-HA overexpressed in 293T cells. As to the kind of experiment: Western blot analysis of overexpressed NGN3-HA in 293T cells upon GSK3 inhibitor. It counts as cell-based. The conditions noted are these: HEK293T cells overexpressing NGN3-HA, treated with GSK3β inhibitor; Western blot (FIG. 6b). An excerpt:
(A) Schematic representation of the proposed mechanism of NGN3 degradation by Fbw7. (B) Western Blot analysis of overexpressed NGN3-HA in 293T cells upon GSK3 inhibitor. (C) Schematic representation of NGN3 GSK3 phosphorylation residues and the different NGN3 phospho-mutant construct generated. (D) NGN3-HA/Fbw7-Flag Immunoprecipitation assay using the different NGN3 constructs indicated in C. (E) Western Blot analysis of NGN3 in cells overexpressing the different NGN3 construct indicated in C. HEK293T cells were cultured in DMEM and 10% FBS. Cells were plated at subconfluence and transfected with Lipofectamine Reagent (Invitrogen) following the manufacturer instructions. HEK293T cells lysates or tissues were homogenized in RIPA lysis buffer supplemented with protease inhibitor (Sigma). Immunoblots were carried out as previously described^4. The gels were transferred to nitrocellulose membranes, and the membranes were immunoblotted with various antibodies as indicated: anti-NGN3, anti-flag, anti-HA, and anti-Myc. The conversion of pancreatic ductal cells into β-cells observed in the RFY mice in vivo could be due to up-regulation of substrates involved in beta cell neogenesis in the adult pancreas. […] To test whether Fbw7 had any effect on NGN3 protein stability (see FIG. 6a), a set of in vitro experiments were conducted. […]
For orientation: Immunoblotting shows a protein as a band on a membrane.

Regarding `Cn1cc(C2=C(c3ccc(Cl)cc3Cl)C(=O)NC2=O)c2ccccc21` [SB216763], the NGN3 protein stability entry was “increased”.

Values taken from patent publication US20150322406A1, “METHOD FOR REPROGRAMMING SOMATIC CELLS TO PANCREATIC BETA CELLS” (CANCER RESEARCH TECHNOLOGY LIMITED, priority 2012, published 2015).
